Reference: US5266319A, “Tannin derivatives and their use for treatment of hypertension” (National Science Council, priority 1992, dated 1993)

Key:
[1] = lethal dosage (LD50) in rats; assay type: in vivo; settings: rat, in vivo
Description: (§1) Furthermore, the lethal dosages (LD50) for the rats were determined. The LD50 of corilagin and geraniin were greater than 100 mg/kg, and the LD50 of 6-O-galloyl-D-glucose and 1,2,3,4,6-penta-O-galloyl-D-glucose were greater than 50 mg/kg. Therefore, these four tannins can be used as a safe and effective […] drugs.

[2] = system: spontaneously hypertensive rats (SHR); experiment: depression of tail arterial blood pressure in spontaneously hypertensive rats (SHR); assay type: in vivo, rat; settings: for Depression of blood pressure, SHR: injected, Means±S.D., N=11; for depress the blood pressure of hypertensive rats (conventional antihypertensive drugs): 1 mg/kg injection, N=8
Description: (§2) The effect on the blood pressure of spontaneously hypertensive rats (SHR) and normal rats (WKY)
(§3) The tannins obtained in the example 1 were injected into various rats respectively at different concentrations.
(§4) The data (Means±S.D.) in table 1 represents the value of the depression range of blood pressure (N=11). In comparison to conventional antihypertensive drugs, guanethidine can depress the blood pressure of hypertensive rats in a range of 28.8±7.95 mmHg (N=8) with a injection concentration of 1 mg/kg, prazosin in a range of 31.4±7.17 mmHg (N=8) and nifedipine in a range of 10.8±2.78 mmHg (N=8) at the same concentration.

[3] = system: norepinephrine; experiment: concentration of norepinephrine in blood (plasma NE); assay type: in vivo, rat; settings: injected to the veins, after ten minutes, Means ± S.D, N=6, Control 3.55 ± 0.31
Description: The effect on the concentration of norepinephrine in blood Four tannins were injected to the veins of various rats respectively at different concentrations. After ten minutes, the blood of the rats were sampled to determine the concentration of norepinephrine in their blood. Obviously, these compounds can reduce the concentration of norepinephrine,i.e., they can inhibit the secretion of norepinephrine and relax the adrenergic tension, and therefore the blood pressure can be reduced.

[4] = system: normal rats (WKY); experiment: depression of tail arterial blood pressure in normal rats (WKY); assay type: in vivo, rat; settings: injected, Means±S.D., N=11
Description: as §2, §3, §4

[5] = system: contraction of rat blood vessel (norepinephrine); experiment: inhibition of norepinephrine-induced contraction of rat blood vessel; assay type: in vivo; settings: norepinephrine 10^-6 g/kg; dose 1 mg/kg i.v.; anesthetized normal rats; Means ± S.D.; n=8
Description: (§5) The effect on the contraction of rat blood vessel Norepinephrine and octopamine were injected into various anesthetized normal rats respectively, so that a contraction of rat blood vessels was induced and the blood pressure increased. […] Therefore, the tannins are potent in inhibiting the contraction of blood vessels and the effect of the tannins on the wall of blood vessel is also significant.

[6] = system: contraction of rat blood vessel (octopamine); experiment: inhibition of octopamine-induced contraction of rat blood vessel; assay type: in vivo; settings: octopamine 8 × 10^-4 g/kg; dose 1 mg/kg i.v.; anesthetized normal rats; Means ± S.D.; n=8
Description: as §5

[7] = system: rats; experiment: lethal dosage (LD50) in rats; assay type: in vivo
Description: as §1

Row | Compound | LD50 [1] [mg/kg] | Depression of blood pressure, SHR ([2]; 1 mg/kg) [mmHg] | Depression of blood pressure, SHR ([2]; 5 mg/kg) [mmHg] | Plasma NE ([3]; 1 mg/kg) [pmol/mL] | Plasma NE ([3]; 5 mg/kg) [pmol/mL] | Depression of blood pressure, WKY ([4]; 1 mg/kg) [mmHg] | Depression of blood pressure, WKY ([4]; 5 mg/kg) [mmHg] | Inhibition (%), Norepinephrine [5] [%] | Inhibition (%), Octopamine [6] [%] | depress the blood pressure of hypertensive rats (conventional antihypertensive drugs) [2] [mmHg] | Plasma NE ([3]; 0.5 mg/kg) [pmol/mL] | LD50 [7]
1 | O=C(OC[C@H]1O[C@@H](OC(=O)c2cc(O)c(O)c(O)c2)[C@H](OC(=O)c2cc(O)c(O)c(O)c2)[C@@H](OC(=O)c2cc(O)c(O)c(O)c2)[C@@H]1OC(=O)c1cc(O)c(O)c(O)c1)c1cc(O)c(O)c(O)c1 [1,2,3,4,6-penta-O-galloyl-D-glucose, 1,2,3,4,6-penta-O-galloyl-β-D-glucose] | > 50 | 13.28 ± 6.22 | 29.57 ± 13.38 | 1.94 ± 0.19 | 1.23 ± 0.21 | 2.62 ± 2.33 | 5.74 ± 2.41 | 70.6 ± 10.7 | 72.1 ± 14.8 | – | – | –
2 | N=C(N)NCCN1CCCCCCC1 [guanethidine, reference compound] | – | – | – | – | – | – | – | – | – | 28.8±7.95 | – | –
3 | O=C(OC[C@H]1OC(O)[C@H](O)[C@@H](O)[C@@H]1O)c1cc(O)c(O)c(O)c1 (stereo partly drawn) [6-O-galloyl-D-glucose] | > 50 | 17.28 ± 7.08 | 24.12 ± 9.93 | 2.14 ± 0.09 | 1.76 ± 0.22 | 5.81 ± 5.07 | 5.21 ± 3.48 | 64.1 ± 15.1 | 65.3 ± 11.3 | – | – | –
4 | COC(=O)C1=C(C)NC(C)=C(C(=O)OC)C1c1ccccc1[N+](=O)[O-] [nifedipine, reference compound] | – | – | – | – | – | – | – | – | – | 10.8±2.78 | – | –
5 | O=C(O[C@@H]1O[C@@H]2COC(=O)c3cc(O)c(O)c(O)c3-c3c(cc(O)c(O)c3O)C(=O)O[C@H]([C@H]1O)[C@@H]2O)c1cc(O)c(O)c(O)c1 [Corilagin, corilagin] | > 100 | 17.85 ± 3.38 | 26.57 ± 7.92 | 1.55 ± 0.19 | – | 3.85 ± 2.64 | 10.85 ± 4.89 | 83.4 ± 7.3 | 65.5 ± 27.5 | – | 2.19 ± 0.22 | –
6 | O=C1O[C@H]2[C@@H]3OC(=O)c4cc(O)c(O)c(O)c4-c4c(cc(O)c(O)c4O)C(=O)OC[C@H]2O[C@@H](OC(=O)c2cc(O)c(O)c(O)c2)[C@@H]3OC(=O)c2cc(O)c(O)c3c2[C@@H]2C1=CC(=O)[C@](O)(O3)C2(O)O [Geraniin, geraniin] | – | 19.28 ± 5.49 | 25.85 ± 4.18 | 2.17 ± 0.09 | – | 3.57 ± 4.72 | 13.28 ± 6.67 | 87.1 ± 6.5 | 74.8 ± 13.5 | – | 2.66 ± 0.19 | greater than 100 mg/kg
7 | COc1cc2nc(N3CCN(C(=O)c4ccco4)CC3)nc(N)c2cc1OC [prazosin, reference compound] | – | – | – | – | – | – | – | – | – | 31.4±7.17 | – | –
